Data reported in publication PMC5955599, “The HTLV-1 gp21 fusion peptide inhibits antigen specific T-cell activation in-vitro and in mice” (PLoS Pathogens, 2018).

Legend:
[1] = Circular dichroism spectroscopy with CDNN secondary structure analysis; format: physicochemical; details: 25μM peptide in 5mM HEPES buffer with 1% LPC
Description: Fig 6 Detection of the immune modulatory region within the HTLV FP. (A) Sequences of shorter peptides derived from the full length HTLV FP. (B) MOG35-55–antigen specific T-cells were activated by APCs in the presence of HTLV FP derived peptides at 10μM and proliferative responses were assessed as described above. […] The data is presented as mean inhibition of proliferation. n = 12. (C) MOG35-55–antigen specific T cells were activated by either (i) irradiated MOG35-55 presenting APCs (black), (ii) antibodies against CD3 and CD28 (white), or (iii) PMA and Ionomycin (gray) in the presence of HTLV FP5-13 and HIV FP5-13 at 10μM. Proliferative responses were assessed as described above. The HTLV FP inhibits T-cell proliferation induced either through the TCR or downstream from the TCR with equal potencies. The data is presented as mean inhibition of proliferation. n = 12. […] CD spectra were measured at 25μM in 5mM HEPES buffer containing 1% lyso-phosphatidylcholine (LPC). […] (E) MOG35-55–antigen specific T-cells were activated by APCs in the presence of HTLV FP5-13 D/L enantiomers at 10μM and proliferative responses were assessed as described above. Both HTLV FP5-13 enantiomers inhibit T-cells proliferation with equal potencies. The data is presented as mean inhibition of proliferation. n = 12. One-way ANOVA was used for statistical analysis. *P<0.05;**P<0.01;***P<0.001.

[2] = system: primary mouse bone marrow derived macrophages (BMDM); assay: Cytokine secretion from TLR-ligand stimulated BM-derived macrophages (ELISA); format: cell-based, mouse (C57Bl/6J); details: HTLV FP at 10μM, stimulated by LTA, LPS or PAM3CSK4 (1 μg/ml), n = 3
Description: Mouse Femora and tibiae BM cells were isolated from C57Bl/6J mice and cultured in RPMI medium containing FBS (10%), L-glutamine (1%), sodium pyruvate (1%), Pen-strep (1%), and 10 ng/ml recombinant CSF-1 (Peprotech). At day 3, half the medium was replaced, and on day 7, cells were used for in vitro assay, in which 2*10^5 cells were plated per well in a 24-well plate.
Mouse Femora and tibiae BM cells were collected and cultured in RPMI medium containing FBS (10%), L-glutamine (1%), sodium pyruvate (1%), Pen-strep (1%), and 10 ng/ml recombinant CSF-1 (Peprotech). On day 7, cells were stimulated by either (i) LTA, (ii) LPS, or (iii) PAM3CSK4 (1 μg/ml), in the presence of the HTLV FP at 10μM. Media was collected either 5 hours following activation (for TNF-α detection) or 22 hour following activation (for IL-6 detection) and secretion levels were determined according to standard protocols from R&D systems.
Supplementary file ppat.1007044.s002.tif: S2 Fig BM-derived macrophages activation is not affected by HTLV FP treatment. […] Media was collected either 5 hours following activation (for TNF-α detection) or 22 hour following activation (for IL-6 detection) and cytokines secretion was measured by ELISA assay. […]

[3] = system: human peripheral T lymphocytes; assay: Cytokine secretion from primary human peripheral T-cells (ELISA); format: cell-based; details: peptide at 10μM, CD3 and CD28 antibodies, media 48 hours following activation, n = 12
Description: Fig 4 Primary human T-cell activation is inhibited upon HTLV FP treatment. Human peripheral T lymphocytes were isolated from whole blood and activated using CD3 and CD28 antibodies, in the presence of HTLV FP or HTLV Scr at 10μM. Media was collected 48 hours following activation and secretion of IL2, IFN-γ and IL10 was measured by ELISA assay. […] One-way ANOVA was used for statistical analysis. *P<0.05; ***P<0.001; ns, not significant.
Human peripheral T lymphocytes were isolated from whole blood of healthy adult donors by dextran sedimentation and Ficoll (Sigma) gradient separation followed by depletion of B cells using nylon wool column (Unisorb), to which B cells were adsorbed. Cells were incubated in a complete RPMI growth medium (500 ml RPMI Ca/Mg + heat inactivated FCS (10% final) + 5 ml 200 mM L-Glu (2 mM final) +5 ml […] Na pyruvate (1 mM final) + 5 ml Pen Strep antibiotics) for more than 2 h, and then non-adherent cells were harvested and transferred to a new plate, resulting in ~90% CD3+ T lymphocytes. Cells were then used for in vitro assay, in which […] were plated per well in a 96-well plate and activated using CD3 and CD28 antibodies.
Human peripheral T lymphocytes were isolated from whole blood of healthy donors and were incubated in a complete RPMI growth medium (500 ml RPMI Ca/Mg + heat inactivated FCS (10% final) + 5 ml 200 mM L-Glu (2 mM final) +5 ml […] Na pyruvate (1 mM final) + 5 ml Pen Strep antibiotics). Cells were activated using CD3 and CD28 antibodies, in the presence of relevant peptides at 10μM. Media was collected 48 hours following activation and secretion of IL2 and IFN-γ was determined according to standard protocols from R&D systems.

[4] = system: mouse MOG35-55–antigen specific T cells; details: XTT, n = 4
Description: Aliquots of 10^4 cells were distributed onto a 96-well plate in the presence of 1.25–40μM of the relevant peptides for 16 or 72 hours. Following incubation, XTT reaction solution (benzene sulfonic acid hydrate and N-methyl dibenzopyrazine methyl sulfate, mixed in a proportion of 50:1), was added for 2 hours. Optical density was read at 450-nm wavelength. The percentage of toxicity was calculated relative to the control, 10^4 cells in medium with no peptide added.
Viability of cells was analyzed by an XTT cytotoxicity assay. MOG35-55–antigen specific T cells were incubated with peptides at concentrations ranging from 40μM to 2.5μM in serial dilutions (from black to light gray respectively). (A) Viability was analyzed following overnight (16 hours) incubation with peptides. (B) Viability was analyzed following 72 hour incubation with the peptide. The data is presented as mean percent viability. Error bars represent ± S.E.M. n = 4. (TIF) Click here for additional data file.

[5] = CD 190–260 nm, CDNN, relative amount of structure out of 100%

AVPVAVWLVSALAMGAGVAGGITGSMSLASGKS [HTLV FP]
Antiparallel β-Sheet [1, 5]: 2.1%
Parallel β-Sheet [1, 5]: 3.3%
Random-coil [1, 5]: 13%
α-Helix [1, 5]: 68.6%
β-turn [1, 5]: 13%
secondary structure in a membrane mimetic environment ([1]; CD): exhibited an α-helical structure
TNFα secretion from BMDM ([2]; media 5 hours following activation): had no effect on cytokine secretion
IL6 secretion from BMDM ([2]; media 22 hour following activation): had no effect on cytokine secretion
IFN-γ secretion, human T-cells [3]: significant reduction in IFN-γ and IL2 secretion
IL2 secretion, human T-cells [3]: significant reduction in IFN-γ and IL2 secretion
IL10 secretion, human T-cells [3]: elevation in IL10 secretion
toxicity to mouse T-cells, 72 hours ([4]; peptide 40μM to 2.5μM, 72 hour incubation): not toxic up to 4-fold higher than the concentrations used in this study
toxicity to mouse T-cells, 16 hours ([4]; peptides 40μM to 2.5μM, overnight (16 hours) incubation): not toxic up to 4-fold higher than the concentrations used in this study
